For the test, the system named is P388 leukemia ip, CD2F1 mice, survival T/C. In words: NCI In Vivo Anticancer Drug Screen. Data for tumor model P388 Leukemia (intraperitoneal) in CD2F1 (CDF1) mice. As to conditions: endpoint: median survival time, higher = longer survival. The essentials:
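Mice carrying the transplanted tumor received test compound or vehicle. Survival was recorded in each group, and the value is the treated-group measurement divided by that of the vehicle-treated control group.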

The mark [1] stands for this setting: dose: 60.0 mg/kg/injection, schedule: Q01DX005 (ip), vehicle: Klucel (hydroxypropylcellulose) (HPC).
Where [2] appears, read: dose: 120.0 mg/kg/injection, schedule: Q01DX005 (ip), vehicle: Klucel (hydroxypropylcellulose) (HPC).
The mark [3] stands for this setting: dose: 240.0 mg/kg/injection, schedule: Q01DX005 (ip), vehicle: Klucel (hydroxypropylcellulose) (HPC).
Where [4] appears, read: dose: 50.0 mg/kg/injection, schedule: Q01DX009 (ip), vehicle: Klucel (hydroxypropylcellulose) (HPC).
Setting [5] is: dose: 100.0 mg/kg/injection, schedule: Q01DX009 (ip), vehicle: Klucel (hydroxypropylcellulose) (HPC).
The mark [6] stands for this setting: dose: 50.0 mg/kg/injection, schedule: Q01DX009 (ip), vehicle: saline with Tween-80.
Setting [7] is: dose: 100.0 mg/kg/injection, schedule: Q01DX009 (ip), vehicle: saline with Tween-80.
The mark [8] stands for this setting: dose: 200.0 mg/kg/injection, schedule: Q01DX009 (ip), vehicle: saline with Tween-80.
Setting [9] is: dose: 400.0 mg/kg/injection, schedule: Q01DX009 (ip), vehicle: saline with Tween-80.
The mark [10] stands for this setting: dose: 50.0 mg/kg/injection, schedule: Q01DX009 (ip), vehicle: distilled water + Tween-80.
The mark [11] stands for this setting: dose: 100.0 mg/kg/injection, schedule: Q01DX009 (ip), vehicle: distilled water + Tween-80.
[12] abbreviates: dose: 100.0 mg/kg/injection, schedule: Q04DX003 (ip), vehicle: Klucel (hydroxypropylcellulose) (HPC).
Setting [13] is: dose: 200.0 mg/kg/injection, schedule: Q04DX003 (ip), vehicle: Klucel (hydroxypropylcellulose) (HPC).
Where [14] appears, read: dose: 400.0 mg/kg/injection, schedule: Q04DX003 (ip), vehicle: Klucel (hydroxypropylcellulose) (HPC).
The mark [15] stands for this setting: dose: 50.0 mg/kg/injection, schedule: Q01DX005 (ip), vehicle: saline with Tween-80.
The mark [16] stands for this setting: dose: 100.0 mg/kg/injection, schedule: Q01DX005 (ip), vehicle: saline with Tween-80.
[17] abbreviates: dose: 200.0 mg/kg/injection, schedule: Q01DX005 (ip), vehicle: saline with Tween-80.

Where “and” joins values, the source holds several entries; their conditions need not be identical. Equal values may be shown once. Toxic doses and inconclusive results are not listed.

The record followed here is PubChem BioAssay AID330 (DTP/NCI, 2004).

For `O=c1[nH]nc(-c2ccccc2)c2nc3ccccc3n12`, the T/C reads like this: under setting [1], 88 % of control; under setting [2], 87 % of control; under setting [3], 88 % of control.

Take `CC(C)CSc1nc2ccc(NC(=O)/C=C/C(=O)O)cc2s1`: the T/C is 95 % of control under setting [4] and 95 % of control under setting [5].

`COc1ccc2c(c1)CCC(c1nc3ccc(Cl)cc3[nH]c1=O)=C2O`: the T/C under setting [1] is 101 % of control, the T/C under setting [2] is 92 % of control and the T/C under setting [3] is 91 % of control.

As for `CCC(C)(C)c1ccc(OCCCCNC(=O)c2ccc3ccccc3c2O)c(C(C)(C)CC)c1`, the T/C runs as follows: under setting [1], 90 % of control; under setting [2], 89 % of control; under setting [3], 86 % of control.

`Cc1sc(NCc2ccccc2)c(C#N)c1C`: the T/C was 101 % of control (dose: 6.25 mg/kg/injection, schedule: Q01DX009 (ip), vehicle: Klucel (hydroxypropylcellulose) (HPC)); 97 % of control (dose: 12.5 mg/kg/injection, schedule: Q01DX009 (ip), vehicle: Klucel (hydroxypropylcellulose) (HPC)); 93 % of control (dose: 25.0 mg/kg/injection, schedule: Q01DX009 (ip), vehicle: Klucel (hydroxypropylcellulose) (HPC)); 86 % of control under setting [5].

With `CCCCOC(=S)Nc1ccccc1`, the T/C runs as follows: (dose: 50.0 mg/kg/injection, schedule: Q01DX009 (ip), vehicle: saline + Tween-80 + alcohol) 99 % of control; under setting [6], 104 % of control; (dose: 100.0 mg/kg/injection, schedule: Q01DX009 (ip), vehicle: saline + Tween-80 + alcohol) 108 % of control; under setting [7], 100 % of control; (dose: 200.0 mg/kg/injection, schedule: Q01DX009 (ip), vehicle: saline + Tween-80 + alcohol) 98 % of control; under setting [8], 98 % of control. Besides, the T/C was 97 % of control (dose: 400.0 mg/kg/injection, schedule: Q01DX009 (ip), vehicle: saline + Tween-80 + alcohol) and 110 % of control under setting [9].

As for `N#CC1C(=O)NC(=O)C(C#N)C1C1C(=O)NC2CCCCC21` (stereo not given), the T/C was 114 % of control under setting [6], 99 % of control under setting [7] and 112 % of control under setting [8].

Regarding `[CH3][Sn]([CH3])([Cl])[CH2]CC[CH2][Sn]([Cl])([Cl])[Cl]`, the T/C reads like this: (dose: 6.25 mg/kg/injection, schedule: Q01DX009 (ip), vehicle: saline) 110 % of control; (dose: 12.5 mg/kg/injection, schedule: Q01DX009 (ip), vehicle: saline) 99 % of control.

On to `CN(O)C(=O)/C=C/c1ccccc1`, for which the T/C reads like this: under setting [10], 104 % of control; under setting [11], 104 % of control; (dose: 200.0 mg/kg/injection, schedule: Q01DX009 (ip), vehicle: distilled water + Tween-80) 110 % of control.

As to `CC1=C(C)CC2(CC1)C(=O)C1(CCC(C)=C(C)C1)C2=O` (stereo not given), the T/C is 93 % of control under setting [6], 90 % of control under setting [7] and 99 % of control under setting [8].

On to `CCCCCCCCCCCCCC[N+]1([O-])CCCCCC1`, for which, for the setting “dose: 50.0 mg/kg/injection, schedule: Q01DX009 (ip), vehicle: saline”, the T/C is 90 % of control.

Take `Oc1ccccc1C=Nc1ccccc1N=Cc1ccccc1O.[Zn]`: the T/C by setting is: under setting [4], 97 % of control; under setting [5], 98 % of control; (dose: 200.0 mg/kg/injection, schedule: Q01DX009 (ip), vehicle: Klucel (hydroxypropylcellulose) (HPC)) 95 % of control.

Take `CCOC(=O)c1ccc(NC(=O)Nc2nc(C)cs2)cc1`: the T/C by setting is: (dose: 12.5 mg/kg/injection, schedule: Q01DX009 (ip), vehicle: distilled water + Tween-80) 104 % of control and 106 % of control; (dose: 25.0 mg/kg/injection, schedule: Q01DX009 (ip), vehicle: distilled water + Tween-80) 99 % of control and 107 % of control; under setting [10], 109 % of control and 111 % of control; under setting [11], 118 % of control.

As for `O=c1[nH]ncc(=S)[nH]1`, the T/C was 90 % of control (dose: 25.0 mg/kg/injection, schedule: Q01DX009 (ip), vehicle: suspension in saline); 103 % of control (dose: 50.0 mg/kg/injection, schedule: Q01DX009 (ip), vehicle: suspension in saline); 87 % of control (dose: 100.0 mg/kg/injection, schedule: Q01DX009 (ip), vehicle: suspension in saline).

Consider `CC1OC(OCC2OC(Oc3c(-c4ccc(O)c(O)c4)oc4cc(O)cc(O)c4c3=O)C(O)C(O)C2O)C(O)C(O)C1O` (stereo not given), for which the T/C reads like this: (dose: 6.25 mg/kg/injection, schedule: Q01DX005 (ip), vehicle: saline with Tween-80) 95 % of control; (dose: 12.5 mg/kg/injection, schedule: Q01DX005 (ip), vehicle: saline with Tween-80) 94 % of control; (dose: 25.0 mg/kg/injection, schedule: Q01DX005 (ip), vehicle: saline with Tween-80) 94 % of control.

For the compound `CCCCCCCCCCC(O)CCCCCCCCCC`, the T/C (dose: 100.0 mg/kg/injection, schedule: Q04DX003 (ip), vehicle: saline with Tween-80) is 95 % of control and the T/C (dose: 200.0 mg/kg/injection, schedule: Q04DX003 (ip), vehicle: saline with Tween-80) was 90 % of control.

Take `CC(C)(Cl)C1OC(C(C)(C)Cl)OC(C(C)(C)Cl)O1` (stereo not given): the T/C reads like this: under setting [7], 91 % of control; under setting [8], 94 % of control; under setting [9], 103 % of control.

With `CC1(C)C(C(=O)/C=C/c2ccccc2)C1[N+](=O)[O-]` (stereo not given), the T/C is, setting by setting: (dose: 50.0 mg/kg/injection, schedule: Q04DX003 (ip), vehicle: Klucel (hydroxypropylcellulose) (HPC)) 96 % of control; under setting [12], 96 % of control; under setting [13], 100 % of control; under setting [14], 101 % of control.

For `Cc1ccc(C2(O)c3ccccc3N=NN2C)cc1` (stereo not given), the T/C by setting is: under setting [15], 100 % of control; under setting [16], 100 % of control; under setting [17], 96 % of control.

Regarding `Cc1nn(C(=S)S)c(C)c1N=Nc1ccccc1[N+](=O)[O-]`, the T/C by setting is: (dose: 100.0 mg/kg/injection, schedule: Q04DX002 (ip), vehicle: Klucel (hydroxypropylcellulose) (HPC)) 103 % of control; (dose: 200.0 mg/kg/injection, schedule: Q04DX002 (ip), vehicle: Klucel (hydroxypropylcellulose) (HPC)) 94 % of control; (dose: 400.0 mg/kg/injection, schedule: Q04DX002 (ip), vehicle: Klucel (hydroxypropylcellulose) (HPC)) 107 % of control.

As for `O=C1c2ccccc2C(=O)N1C1Cc2nc3ccccc3n2C1=O` (stereo not given), the T/C (dose: 60.0 mg/kg/injection, schedule: Q01DX005 (ip), vehicle: saline with Tween-80) was 98 % of control; the T/C (dose: 120.0 mg/kg/injection, schedule: Q01DX005 (ip), vehicle: saline with Tween-80) is 93 % of control; the T/C (dose: 240.0 mg/kg/injection, schedule: Q01DX005 (ip), vehicle: saline with Tween-80) is 89 % of control.

Regarding `C=C(C)[C@@H]1CC[C@](C)(CCC#N)/C(=N\NC(N)=O)C1`, the T/C is, setting by setting: under setting [12], 99 % of control; under setting [13], 102 % of control; under setting [14], 89 % of control.

With `COc1cc(C2c3cc4c(cc3OC3(N5CCCC5)CCCC23)OCO4)cc(OC)c1OC` (stereo not given), the T/C runs as follows: under setting [1], 96 % of control; under setting [2], 97 % of control; under setting [3], 96 % of control.

With `CC(C)c1cc2c(c(O)c1O)C13CCCC(C)(C)C1CC2OC3=O` (stereo not given), the T/C was 113 % of control (dose: 7.0 mg/kg/injection, schedule: Q01DX005 (ip), vehicle: saline with Tween-80); 111 % of control (dose: 14.0 mg/kg/injection, schedule: Q01DX005 (ip), vehicle: saline with Tween-80); 104 % of control (dose: 28.0 mg/kg/injection, schedule: Q01DX005 (ip), vehicle: saline with Tween-80).

In the case of `C1CN1c1nnc(N2CC2)nn1`, the T/C (dose: 7.5 mg/kg/injection, schedule: Q01DX005 (ip), vehicle: saline) was 178 % of control and the T/C (dose: 30.0 mg/kg/injection, schedule: Q01DX005 (ip), vehicle: saline) was 260 % of control.

On to `CC(C1SC(=S)NC1=O)C1SC(=S)NC1=O` (stereo not given), for which the T/C under setting [15] is 86 % of control, the T/C under setting [16] was 87 % of control and the T/C under setting [17] is 87 % of control.
